Source: publication PMC7827085 (Pharmaceutics, 2021)
pIC50: −log10 of the molar value. Like-named read-outs stand apart in the source and are kept apart here.

Key:
ABCG2/BCRP [1] = target: T1, ABCG2/BCRP (Homo sapiens, UniProt Q9UNQ0); test: in vitro; conditions: human
T1 sequence (Q9UNQ0 1-655): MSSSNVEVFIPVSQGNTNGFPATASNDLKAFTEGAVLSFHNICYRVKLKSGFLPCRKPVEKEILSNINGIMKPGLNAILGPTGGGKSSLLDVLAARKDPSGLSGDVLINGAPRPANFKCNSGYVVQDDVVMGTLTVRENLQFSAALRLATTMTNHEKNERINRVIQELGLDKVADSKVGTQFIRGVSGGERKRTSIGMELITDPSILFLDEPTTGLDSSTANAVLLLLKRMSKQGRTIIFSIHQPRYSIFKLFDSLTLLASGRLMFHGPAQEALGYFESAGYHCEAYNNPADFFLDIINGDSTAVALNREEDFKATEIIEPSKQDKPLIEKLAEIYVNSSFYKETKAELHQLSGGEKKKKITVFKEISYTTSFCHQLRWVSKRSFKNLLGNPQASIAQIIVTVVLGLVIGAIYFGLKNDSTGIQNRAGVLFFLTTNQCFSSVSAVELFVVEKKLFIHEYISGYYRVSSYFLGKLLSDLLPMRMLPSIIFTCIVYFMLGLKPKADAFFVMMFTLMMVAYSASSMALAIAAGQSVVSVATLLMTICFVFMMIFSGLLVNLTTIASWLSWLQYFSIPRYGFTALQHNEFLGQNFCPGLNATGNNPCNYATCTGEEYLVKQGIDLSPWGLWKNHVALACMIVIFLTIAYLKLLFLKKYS
Procedure: These were employed at 37 °C for 10 min (ABCG2), 1 min (ABCB1), or 3 min (ABCC1), with or without 4 mM Mg-ATP, in a 50 μL final volume. The known reference inhibitors of the transporters (1 µM Ko143 for ABCG2, 1 µM Valspodar for ABCB1, and 200 µM Benzbromarone for ABCC1) served as controls. Each test compound was dissolved in DMSO and a 1 µL volume was added to the samples. After incubation, the samples were filtered and washed, and the substrates in the vesicles were dissolved in 10% SDS and transferred onto another plate. After the addition of a stabilizer, the fluorescence was measured in plate readers (Victor X3 and Enspire Perkin-Elmer, Waltham, MA, USA), while the activity of the radiolabeled substrate was measured by liquid scintillation counting (Perkin Elmer MicroBeta2 liquid scintillation counter, Perkin Elmer, Waltham, MA, USA). ABC transporter-related vesicular transport was calculated by subtracting uptake measured in the presence of Mg-AMP from the values measured in the presence of Mg-ATP.
The effects of the test compounds on ABCG2 activity were also measured in a vesicular transport assay by using inverted membrane vesicles prepared from HEK-293 cells expressing high levels of the ABCG2 transporter.

ABCG2/BCRP [2] = target: T1, ABCG2/BCRP; test: in vitro; conditions: human; remark: listed apart in the source
Procedure: (§1) For the ABC transporter assays, we used both cell-based and membrane-based functional assays. […] The respective transport activities were assayed by measuring the cellular fluorescence of the respective transported substrates Phengreen (ABCG2) and Calcein (ABCB1 and ABCC1).
(§2) The cells were kept on ice until the flow cytometry measurements. All experiments were performed in triplicate and in at least three biological parallels. […] The PhenGreen (PG) or Calcein signal was detected in the BL1 channel (emission filter: 530/30 nm). Analysis of the data was carried out by the Attune Nxt Cytometer Software v3.1.2 (Thermo Fischer Scientific, Waltham, MA, USA). The inhibition of transporter activity was calculated by comparing the fluorescence in the presence of the test compound to that in the presence of a specific inhibitor providing maximum inhibition. […] Half-maximum inhibition (IC50) values were calculated by using the Origin2019 software (9.6.5.169, OriginLab Corporation, Northampton, MA, USA). […] In these experiments, we measured Hoechst dye extrusion in HeLa cells stably expressing eGFP and the ABCG2 variants driven by the same promoter—the transgenic cells generated by the Sleeping Beauty transposon system. […] For details, see Zámbó et al.). […] The maximum inhibition was defined for each variant as the fluorescence difference of the samples incubated with and without Ko143, respectively. […] Data analysis was performed using the Attune Nxt Cytometer Software v3.1.2. Two samples per condition and three biological replicates were examined in each experiment.
Here, we used both PhenGreen-SK diacetate and Hst dye for these measurements. The PhenGreen (PG) assay is a recently patented method applied for ensuring an efficient ABCG2 transport measurement, as the non-fluorescent PhenGreen diacetate (PG-DA) is actively extruded by ABCG2 and the cellular fluorescence is correlated with ABCG2 transport activity. Therefore, we applied this assay to characterize the test drug interactions in intact PLB-985 cells expressing high levels of the ABCG2 protein. […] ABCG2 inhibition by the test compounds was estimated by their relative (%) inhibition compared to full inhibition by Ko143.

ABCB1/MDR1/Pgp [3] = target: T2, ABCB1/MDR1/Pgp (Homo sapiens, UniProt P08183); test: in vitro; conditions: Estimated Transporter Inhibition IC50, ABCB1 vesicular assay, ATP-dependent NMQ uptake, HEK-293/ABCB1 inverted membrane vesicles, '-' = no inhibition
ABCC1/MRP1 [4] = target: T3, ABCC1/MRP1 (Homo sapiens, UniProt P33527); test: in vitro; conditions: HL60/ABCC1 cells
Procedure: as §1
(§3) The cells were kept on ice until the flow cytometry measurements. All experiments were performed in triplicate and in at least three biological parallels.
as §2
Therefore, we applied this assay to characterize the test drug interactions in intact HL60 cells expressing high levels of the ABCC1 protein.

ABCB1/MDR1/Pgp [5] = target: T2, ABCB1/MDR1/Pgp; test: in vitro; conditions: human
Procedure: as §1, §3, §2
ABCB1 is a high-affinity active efflux transporter of the viability dye Calcein-AM (CaAM). […] Here, we applied this widely used cellular assay (see https://www.solvobiotech.com/services/categories/dye-efflux-assays) to characterize drug interactions of the applied compounds in intact PLB-985 cells, expressing high levels of the ABCB1 protein.

ABCC1/MRP1 [6] = target: T3, ABCC1/MRP1
[7] = in patients; lopinavir may reach, ritonavir may peak; ref FDA label 021226s018lbl / EMA Kaletra EPAR scientific discussion; cited from earlier work

T3 sequence (P33527 whole entry): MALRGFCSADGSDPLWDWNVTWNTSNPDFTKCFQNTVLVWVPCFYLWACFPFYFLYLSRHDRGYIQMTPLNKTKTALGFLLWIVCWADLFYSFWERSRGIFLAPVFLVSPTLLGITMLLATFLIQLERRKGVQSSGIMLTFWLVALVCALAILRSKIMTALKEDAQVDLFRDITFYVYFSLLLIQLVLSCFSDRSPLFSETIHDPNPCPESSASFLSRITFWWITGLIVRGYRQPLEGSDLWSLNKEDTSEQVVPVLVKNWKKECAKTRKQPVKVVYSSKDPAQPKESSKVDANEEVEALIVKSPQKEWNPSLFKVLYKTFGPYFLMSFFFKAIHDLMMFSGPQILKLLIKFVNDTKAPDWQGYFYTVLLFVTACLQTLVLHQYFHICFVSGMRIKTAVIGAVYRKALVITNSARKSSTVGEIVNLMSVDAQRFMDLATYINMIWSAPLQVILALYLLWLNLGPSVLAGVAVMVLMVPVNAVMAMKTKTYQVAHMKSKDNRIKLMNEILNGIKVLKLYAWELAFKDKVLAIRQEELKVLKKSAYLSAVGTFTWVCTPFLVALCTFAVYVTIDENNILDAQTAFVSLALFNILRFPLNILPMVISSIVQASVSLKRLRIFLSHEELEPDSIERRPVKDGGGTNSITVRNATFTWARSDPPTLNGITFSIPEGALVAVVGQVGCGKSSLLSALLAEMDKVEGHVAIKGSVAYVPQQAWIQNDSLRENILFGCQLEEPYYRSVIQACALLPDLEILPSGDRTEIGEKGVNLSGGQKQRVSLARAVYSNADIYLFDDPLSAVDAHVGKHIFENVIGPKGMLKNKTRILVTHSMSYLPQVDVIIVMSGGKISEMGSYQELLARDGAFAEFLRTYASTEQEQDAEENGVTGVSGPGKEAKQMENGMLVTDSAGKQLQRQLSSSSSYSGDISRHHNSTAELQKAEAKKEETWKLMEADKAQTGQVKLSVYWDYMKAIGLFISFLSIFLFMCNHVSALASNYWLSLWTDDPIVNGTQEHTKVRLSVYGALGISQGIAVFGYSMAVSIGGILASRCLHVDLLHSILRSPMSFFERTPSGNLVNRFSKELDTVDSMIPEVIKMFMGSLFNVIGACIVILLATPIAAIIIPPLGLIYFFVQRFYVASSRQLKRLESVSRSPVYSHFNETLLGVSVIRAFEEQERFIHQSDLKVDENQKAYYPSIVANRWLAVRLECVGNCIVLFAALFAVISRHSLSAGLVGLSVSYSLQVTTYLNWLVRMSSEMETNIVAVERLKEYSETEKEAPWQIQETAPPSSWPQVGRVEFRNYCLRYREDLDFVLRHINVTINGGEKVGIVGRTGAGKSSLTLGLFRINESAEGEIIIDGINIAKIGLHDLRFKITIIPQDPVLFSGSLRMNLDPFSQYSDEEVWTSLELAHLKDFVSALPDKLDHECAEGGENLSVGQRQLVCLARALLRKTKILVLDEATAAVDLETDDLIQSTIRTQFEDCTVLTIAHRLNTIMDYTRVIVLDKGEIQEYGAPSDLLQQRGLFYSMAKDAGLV
T2 sequence (P08183 whole entry): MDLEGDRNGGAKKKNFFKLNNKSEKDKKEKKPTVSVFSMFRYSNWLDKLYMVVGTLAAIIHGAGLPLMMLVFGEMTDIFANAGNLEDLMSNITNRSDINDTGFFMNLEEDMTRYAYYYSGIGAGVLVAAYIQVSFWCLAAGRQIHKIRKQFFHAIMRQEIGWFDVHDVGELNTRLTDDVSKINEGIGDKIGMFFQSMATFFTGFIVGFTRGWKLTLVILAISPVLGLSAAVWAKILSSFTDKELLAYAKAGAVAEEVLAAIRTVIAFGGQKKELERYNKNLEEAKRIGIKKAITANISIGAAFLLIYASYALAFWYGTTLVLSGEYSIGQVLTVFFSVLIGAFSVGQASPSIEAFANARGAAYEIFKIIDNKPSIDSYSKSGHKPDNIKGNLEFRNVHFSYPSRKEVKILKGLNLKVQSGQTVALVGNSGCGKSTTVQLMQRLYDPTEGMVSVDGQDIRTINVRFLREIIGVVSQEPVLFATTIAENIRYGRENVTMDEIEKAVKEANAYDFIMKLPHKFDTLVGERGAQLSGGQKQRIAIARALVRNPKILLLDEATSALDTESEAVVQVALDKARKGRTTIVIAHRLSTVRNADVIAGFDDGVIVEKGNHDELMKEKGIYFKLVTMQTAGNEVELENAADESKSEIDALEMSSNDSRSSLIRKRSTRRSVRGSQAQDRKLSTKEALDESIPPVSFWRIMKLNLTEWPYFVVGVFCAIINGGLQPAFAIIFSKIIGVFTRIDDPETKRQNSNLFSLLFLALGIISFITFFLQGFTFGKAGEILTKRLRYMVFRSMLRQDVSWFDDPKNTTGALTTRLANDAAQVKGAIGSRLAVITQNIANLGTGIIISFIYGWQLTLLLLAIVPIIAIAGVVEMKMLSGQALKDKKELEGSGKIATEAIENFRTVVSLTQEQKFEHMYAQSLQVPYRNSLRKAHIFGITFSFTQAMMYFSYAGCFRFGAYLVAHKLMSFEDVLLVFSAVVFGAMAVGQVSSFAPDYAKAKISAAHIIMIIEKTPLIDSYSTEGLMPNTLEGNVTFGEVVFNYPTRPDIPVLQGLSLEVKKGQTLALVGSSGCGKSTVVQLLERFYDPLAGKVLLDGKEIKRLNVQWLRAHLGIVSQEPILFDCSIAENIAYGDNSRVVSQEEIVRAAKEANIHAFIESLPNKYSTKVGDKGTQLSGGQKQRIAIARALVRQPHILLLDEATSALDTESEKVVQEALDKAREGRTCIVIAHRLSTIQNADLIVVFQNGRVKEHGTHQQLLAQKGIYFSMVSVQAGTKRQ

Row | SMILES | IC50 at 10 min (ABCG2/BCRP [1]) [µM] | IC50 at 40 min (ABCG2/BCRP [2]) [µM] | pIC50 (ABCB1/MDR1/Pgp [3]) | Effect on ABCC1-dependent CaAM extrusion (in words) (ABCC1/MRP1 [4]) | IC50 at 40 min (ABCB1/MDR1/Pgp [5]) [µM] | Effect on ABCC1 vesicular ETGB transport (in words) (ABCC1/MRP1 [6]) | Plasma concentration in patients [7] | Effect on ABCC1 vesicular ETGB transport (in words) (ABCC1/MRP1 [6]; Sf9/ABCC1 membrane vesicles)
1 | CCN(CC)CCCC(C)Nc1ccnc2cc(Cl)ccc12 (centres unmarked) [chloroquine] | > 50 | > 50 | < 4.30 | practically no effect | > 50 | practically no effect |  | 
2 | CC(C)c1nc(CN(C)C(=O)N[C@H](C(=O)N[C@@H](Cc2ccccc2)C[C@H](O)[C@H](Cc2ccccc2)NC(=O)OCc2cncs2)C(C)C)cs1 [ritonavir] |  |  |  |  |  |  | about 1 μM | practically no effect
